# Experiments:
# [1] = biological target: T1, human quinone reductase 2 (QR2) (Homo sapiens, UniProt P16083); experiment: QR2 steady-state kinetic assay; type: biochemical; settings: for inhibitory activity against QR2: result in words
# T1 sequence (P16083 1-231): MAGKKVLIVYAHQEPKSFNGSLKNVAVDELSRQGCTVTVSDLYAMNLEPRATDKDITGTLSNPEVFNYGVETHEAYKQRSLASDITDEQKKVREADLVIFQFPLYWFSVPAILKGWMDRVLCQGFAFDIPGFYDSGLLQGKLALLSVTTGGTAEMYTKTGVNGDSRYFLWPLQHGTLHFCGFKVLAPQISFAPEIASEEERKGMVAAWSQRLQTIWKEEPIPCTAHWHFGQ
# [2] = test system: normal prostate stromal cells (PrSCs); settings: result in words; cited from earlier work
# [3] = test system: normal prostate epithelial cells (PrECs); settings: result in words; cited from earlier work
compound,measurement,setting,value
"COC(=O)c1cc(C(N)=O)nc2cc(N)c(N)c(Cl)c12 [Compound 23, Methyl 6,7-Diamino-2-carbamoyl-5-chloroquinoline-4-carboxylate]",increase in QR2 inhibitory activity,[1]; relative to 12,10 fold
"COC(=O)C1CC(O)(C(=O)OC)c2c(N)c(Cl)cc(Cl)c2N1 (centres unmarked) [Compound 26, Dimethyl 5-Amino-6,8-dichloro-4-hydroxy-1,2,3,4-tetrahydroquinoline-2,4-dicarboxylate]",inhibitory activity against QR2,[1],none showed inhibitory activity
"COC(=O)C1CC2(O)C(=O)Nc3c(Cl)cc(Cl)c(c32)N1 (centres unmarked) [Compound 33, Methyl 6,8-Dichloro-2a-hydroxy-2-oxo-1,2,2a,3,4,5-hexahydropyrrolo[4,3,2-d,e]quinoline-4-carboxylate]",inhibitory activity against QR2,[1],none showed inhibitory activity
Oc1ccc(/C=C/c2cc(O)cc(O)c2)cc1 [resveratrol],effect on cellular proliferation of PrSCs,[2],dose-dependent inhibition of cellular proliferation
same,effect on PrEC growth,[3],no effect

# Reference: publication PMC3262027 (Journal of Medicinal Chemistry, 2011)
